Data published in patent US6340677B1, “Method of evaluation of skin conditioning-ameliorating agents and method of producing compositions for topical application to skin” (Pola Chemical Industries, Inc., priority 1997, dated 2002).

Test system: mouse photo-aging model
Experiment: degree of order of dermis collagen fiber bundle in the mouse photo-aging model (score 0 to 3 from electron microphotographs)
Type: in vivo, hairless mice (Skh: HR-1)
Details: 0.05% solution in ethanol
Description: Five groups of hairless mice (Skh: HR-1,female, 8-week-old), each group comprising six mice, were prepared. A part of skin and replica of skin surface morphology were excised from each mouse of one group of them when they were 8 weeks old without the following ultraviolet light irradiation, namely in-the state of before the ultraviolet light irradiation. About the remaining four groups, each mouse was irradiated with ultraviolet light B (Toshiba SE lamp, 60 mJ/cm^2) once per day for 5 days a week and fed up. The irradiation of the ultraviolet light to one group among the four groups described-above was stopped after one week of the initiation of the irradiation and at this time a part of skin and replica of skin surface morphology were excised from each mouse of the group. As the same manner, the irradiation of the ultraviolet light to the another group and to the further another group were stopped after two and five weeks of the initiation of the irradiation and then a part of skin and replica of skin surface morphology were excised from each mouse of the groups respectively. The irradiation of the ultraviolet light to the last group was continued to 10 weeks after initiation of the irradiation to prepare the mouse photo-aging models. Thus the total amount of the ultraviolet light irradiated to the mouse photo-aging models was 3J/cm^2. A part of skin and replica of skin surface morphology were also excised from each mouse photo-aging model obtained above. […] Each of the solution was given in an amount of 0.05 ml once a day for consecutive 8 weeks. After completion of the application, a part of the skin was excised from each mouse to take photographs of its surface morphology under scanning electron microscope. […] Evaluation was carried out using the value calculated by dividing the degree of order of the dermis collagen fiber bundle measured by the above method after the application by that before the application.

C[C@@H]1C[C@H]2[C@@H]3CCC4=CC(=O)C=C[C@]4(C)[C@@]3(F)[C@@H](O)C[C@]2(C)[C@@]1(O)C(=O)CO [dexamethasone]
average of the scores of the degree of order of dermis collagen fiber bundle (0.05 ml once a day for consecutive 8 weeks, five mice, score 0 to 3, 2,500 magnification, before application 0.82): 1.71 | degree of amelioration of skin conditions (average score of treated group / average score of ethanol-applied group) (8 weeks, 1.71/0.78): 2.28 | degree of amelioration of skin conditions (score after application / score before application) (8 weeks, 1.71/0.82): 2.09
